Measurements: PubChem BioAssay AID328 (DTP/NCI, 2004)
Inconclusive results and toxic doses are left out.

System: BDF1 mice, P388 leukemia ip, median survival T/C
Test: NCI In Vivo Anticancer Drug Screen. Data for tumor model P388 Leukemia (intraperitoneal) in B6D2F1 (BDF1) mice
Conditions: endpoint: median survival time, higher = longer survival
Procedure, shortened: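 Mice carrying the transplantable tumour receive compound or vehicle. Survival is followed in each arm, and the treated measure is divided by the vehicle measure.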

[1] = dose: 100.0 mg/kg/injection, schedule: Q01DX009 (ip), vehicle: saline with Tween-80
[2] = dose: 100.0 mg/kg/injection, schedule: Q04DX003 (ip), vehicle: saline with Tween-80
[3] = dose: 200.0 mg/kg/injection, schedule: Q01DX009 (ip), vehicle: saline with Tween-80
[4] = dose: 200.0 mg/kg/injection, schedule: Q04DX003 (ip), vehicle: saline with Tween-80
[5] = dose: 400.0 mg/kg/injection, schedule: Q01DX009 (ip), vehicle: saline with Tween-80
[6] = dose: 400.0 mg/kg/injection, schedule: Q04DX003 (ip), vehicle: saline with Tween-80
[7] = dose: 100.0 mg/kg/injection, schedule: Q04DX003 (ip), vehicle: saline
[8] = dose: 200.0 mg/kg/injection, schedule: Q04DX003 (ip), vehicle: saline
[9] = dose: 400.0 mg/kg/injection, schedule: Q04DX003 (ip), vehicle: saline
[10] = dose: 50.0 mg/kg/injection, schedule: Q01DX009 (ip), vehicle: saline
[11] = dose: 100.0 mg/kg/injection, schedule: Q01DX009 (ip), vehicle: saline
[12] = dose: 200.0 mg/kg/injection, schedule: Q01DX009 (ip), vehicle: saline
[13] = dose: 25.0 mg/kg/injection, schedule: Q01DX009 (ip), vehicle: saline
[14] = dose: 25.0 mg/kg/injection, schedule: Q04DX003 (ip), vehicle: saline
[15] = dose: 12.5 mg/kg/injection, schedule: Q01DX009 (ip), vehicle: saline with Tween-80
[16] = dose: 25.0 mg/kg/injection, schedule: Q01DX009 (ip), vehicle: saline with Tween-80
[17] = dose: 50.0 mg/kg/injection, schedule: Q01DX009 (ip), vehicle: saline with Tween-80
[18] = dose: 50.0 mg/kg/injection, schedule: Q04DX003 (ip), vehicle: Klucel (hydroxypropylcellulose) (HPC)
[19] = dose: 100.0 mg/kg/injection, schedule: Q04DX003 (ip), vehicle: Klucel (hydroxypropylcellulose) (HPC)
[20] = dose: 200.0 mg/kg/injection, schedule: Q04DX003 (ip), vehicle: Klucel (hydroxypropylcellulose) (HPC)

## C[C@]12[C@@H]3CC(=O)C[C@@]1(CC[C@@H]1[C@@H]2CC[C@]2(C)OC(=O)CC[C@@H]12)SS3
[1]
  T/C: 100 % of control
[2]
  T/C: 104 % of control
[3]
  T/C: 91 % of control
[4]
  T/C: 90 % of control
[5]
  T/C: 95 % of control
[6]
  T/C: 90 % of control

## CCOc1ccc2nc3cc(N)ccc3c(N)c2c1
dose: 44.0 mg/kg/injection, schedule: Q04DX003 (ip), vehicle: saline
  T/C: 118 % of control
dose: 66.0 mg/kg/injection, schedule: Q04DX003 (ip), vehicle: saline
  T/C: 118 % of control
[7]
  T/C: 118 % of control
[8]
  T/C: 117 % of control
[9]
  T/C: 86 % of control

## NC(=O)NN=C1COC(c2ccccc2)OC1 (stereo not given)
[10]
  T/C: 110 % of control
[11]
  T/C: 110 % of control
[7]
  T/C: 116 % of control
[12]
  T/C: 91 % of control
[8]
  T/C: 104 % of control

## C=C(C)c1ccccc1S(=O)(=O)c1ccccc1C(C)(C)O
[2]
  T/C: 105 % of control
[4]
  T/C: 110 % of control
[6]
  T/C: 114 % of control

## NNC12CC3CC(CC(C3)C1)C2
dose: 6.25 mg/kg/injection, schedule: Q01DX009 (ip), vehicle: saline
  T/C: 95 % of control
dose: 6.25 mg/kg/injection, schedule: Q04DX003 (ip), vehicle: saline
  T/C: 102 % of control
dose: 12.5 mg/kg/injection, schedule: Q01DX009 (ip), vehicle: saline
  T/C: 86 % of control
dose: 12.5 mg/kg/injection, schedule: Q04DX003 (ip), vehicle: saline
  T/C: 100 % of control
[13]
  T/C: 86 % of control
[14]
  T/C: 98 % of control
dose: 50.0 mg/kg/injection, schedule: Q04DX003 (ip), vehicle: saline
  T/C: 115 % of control

## O.O=C(O)O.O=C(O)O.O=C(O)O.[Zr]
[11]
  T/C: 96 % of control
[7]
  T/C: 100 % of control
[12]
  T/C: 96 % of control
[8]
  T/C: 100 % of control
dose: 400.0 mg/kg/injection, schedule: Q01DX009 (ip), vehicle: saline
  T/C: 96 % of control
[9]
  T/C: 95 % of control

## O=C(O)c1cc(O)c(O)c(O)c1
dose: 1.25 mg/kg/injection, schedule: Q01DX009 (ip), vehicle: saline
  T/C: 90 % of control
dose: 2.5 mg/kg/injection, schedule: Q01DX009 (ip), vehicle: saline
  T/C: 95 % of control
dose: 5.0 mg/kg/injection, schedule: Q01DX009 (ip), vehicle: saline
  T/C: 95 % of control
dose: 10.0 mg/kg/injection, schedule: Q01DX009 (ip), vehicle: saline
  T/C: 115 % of control
dose: 10.0 mg/kg/injection, schedule: Q01DX010 (ip), vehicle: saline
  T/C: 110 % of control
dose: 20.0 mg/kg/injection, schedule: Q01DX010 (ip), vehicle: saline
  T/C: 100 % of control
dose: 40.0 mg/kg/injection, schedule: Q01DX010 (ip), vehicle: saline
  T/C: 90 % of control
[10]
  T/C: 100 % of control
[11]
  T/C: 100 % of control
[12]
  T/C: 104 % of control

## CCN(CC)P(=O)(N1CC1)N1CC1
dose: 16.5 mg/kg/injection, schedule: Q04DX003 (ip), vehicle: saline
  T/C: 272 % of control
[14]
  T/C: 90 % of control

## CC(N)C(=O)NC(C)C(=O)O (stereo not given)
dose: 100.0 mg/kg/injection, schedule: Q01DX001 (ip), vehicle: saline
  T/C: 98 % of control
dose: 200.0 mg/kg/injection, schedule: Q01DX001 (ip), vehicle: saline
  T/C: 100 % of control
dose: 400.0 mg/kg/injection, schedule: Q01DX001 (ip), vehicle: saline
  T/C: 99 % of control

## CC(C)CNC(=O)C12CC3CC(CC(C3)C1)C2
[15]
  T/C: 104 % of control
[16]
  T/C: 107 % of control
[17]
  T/C: 104 % of control
[1]
  T/C: 101 % of control

## O=C(CC(C(=O)c1ccccc1)N1CC1)c1ccccc1 (stereo not given)
dose: 50.0 mg/kg/injection, schedule: Q04DX003 (ip), vehicle: saline with Tween-80
  T/C: 90 % of control
[2]
  T/C: 90 % of control

## Cc1c(N2CCCCC2)[nH]c2ccccc12
[18]
  T/C: 100 % of control
[19]
  T/C: 100 % of control
[20]
  T/C: 95 % of control

## N#CC(C#N)=Cc1ccc(Cl)c(Cl)c1
dose: 25.0 mg/kg/injection, schedule: Q01DX009 (ip), vehicle: Klucel (hydroxypropylcellulose) (HPC)
  T/C: 115 % of control
dose: 50.0 mg/kg/injection, schedule: Q01DX009 (ip), vehicle: Klucel (hydroxypropylcellulose) (HPC)
  T/C: 100 % of control
[18]
  T/C: 100 % of control
dose: 100.0 mg/kg/injection, schedule: Q01DX009 (ip), vehicle: Klucel (hydroxypropylcellulose) (HPC)
  T/C: 120 % of control
[19]
  T/C: 100 % of control

## Cc1c[n+]2c3ccccc3c3ccccc3c2s1
dose: 1.5 mg/kg/injection, schedule: Q01DX009 (ip), vehicle: Klucel (hydroxypropylcellulose) (HPC)
  T/C: 95 % of control
dose: 2.5 mg/kg/injection, schedule: Q01DX009 (ip), vehicle: Klucel (hydroxypropylcellulose) (HPC)
  T/C: 100 % of control
dose: 3.0 mg/kg/injection, schedule: Q01DX009 (ip), vehicle: Klucel (hydroxypropylcellulose) (HPC)
  T/C: 90 % of control
dose: 5.0 mg/kg/injection, schedule: Q01DX009 (ip), vehicle: Klucel (hydroxypropylcellulose) (HPC)
  T/C: 122 % of control
dose: 6.0 mg/kg/injection, schedule: Q01DX009 (ip), vehicle: Klucel (hydroxypropylcellulose) (HPC)
  T/C: 86 % of control
dose: 10.0 mg/kg/injection, schedule: Q01DX009 (ip), vehicle: Klucel (hydroxypropylcellulose) (HPC)
  T/C: 118 % of control
dose: 10.0 mg/kg/injection, schedule: Q04DX003 (ip), vehicle: Klucel (hydroxypropylcellulose) (HPC)
  T/C: 118 % of control
dose: 20.0 mg/kg/injection, schedule: Q04DX003 (ip), vehicle: Klucel (hydroxypropylcellulose) (HPC)
  T/C: 95 % of control
dose: 80.0 mg/kg/injection, schedule: Q04DX003 (ip), vehicle: Klucel (hydroxypropylcellulose) (HPC)
  T/C: 90 % of control
[20]
  T/C: 90 % of control

## COc1ccc(N/N=C(\C)C2(O)Cc3c(O)c4c(c(O)c3C(OC3CC(N)C(O)C(C)O3)C2)C(=O)c2c(OC)cccc2C4=O)cc1 (stereo not given)
dose: 1.73 mg/kg/injection, schedule: Q04DX003 (ip), vehicle: water
  T/C: 123 % of control
dose: 4.8 mg/kg/injection, schedule: Q04DX003 (ip), vehicle: water
  T/C: 157 % of control

## CCOC(=O)Nc1cc2c(c(N)n1)N=C(CN(C)c1ccccc1)CN2
dose: 12.5 mg/kg/injection, schedule: Q01DX001 (ip), vehicle: Klucel (hydroxypropylcellulose) (HPC)
  T/C: 123 % of control
dose: 50.0 mg/kg/injection, schedule: Q01DX001 (ip), vehicle: Klucel (hydroxypropylcellulose) (HPC)
  T/C: 164 % of control
dose: 100.0 mg/kg/injection, schedule: Q01DX001 (ip), vehicle: Klucel (hydroxypropylcellulose) (HPC)
  T/C: 211 % of control

## C[C@@H]1CC2=CC(=O)CC[C@]2(C)[C@H]2CC[C@]3(C)[C@@H](O)CC[C@H]3[C@H]12
[1]
  T/C: 100 % of control
[2]
  T/C: 100 % of control
[3]
  T/C: 95 % of control
[4]
  T/C: 109 % of control
[5]
  T/C: 90 % of control
[6]
  T/C: 95 % of control

## CN(C)CC(C)(C)CO
[13]
  T/C: 96 % of control
[10]
  T/C: 106 % of control
[11]
  T/C: 101 % of control
[12]
  T/C: 107 % of control

## CC(=O)N1C(=O)N(Cl)C(=O)C1(C)c1cccs1 (stereo not given)
dose: 66.0 mg/kg/injection, schedule: Q01DX009 (ip), vehicle: saline with Tween-80
  T/C: 97 % of control
[1]
  T/C: 103 % of control
[3]
  T/C: 100 % of control

## CCOC(=O)N(C)c1ccc(Cl)cc1C(N)=O
[19]
  T/C: 100 % of control
[20]
  T/C: 94 % of control
dose: 400.0 mg/kg/injection, schedule: Q04DX003 (ip), vehicle: Klucel (hydroxypropylcellulose) (HPC)
  T/C: 115 % of control

## OC1COC(O)C(O)C1O (stereo not given)
dose: 250.0 mg/kg/injection, schedule: Q04DX003 (ip), vehicle: saline
  T/C: 102 % of control
dose: 500.0 mg/kg/injection, schedule: Q04DX003 (ip), vehicle: saline
  T/C: 100 % of control
dose: 1000.0 mg/kg/injection, schedule: Q04DX003 (ip), vehicle: saline
  T/C: 100 % of control
dose: 2000.0 mg/kg/injection, schedule: Q04DX003 (ip), vehicle: saline
  T/C: 111 % of control

## COc1ccc(/C(=N/N)C(C)(C)C)cc1
[17]
  T/C: 88 % of control

## CNC(=S)N/N=C(/C)CCC/C(C)=N/NC(=S)NC
dose: 6.25 mg/kg/injection, schedule: Q01DX009 (ip), vehicle: saline with Tween-80
  T/C: 106 % of control
[15]
  T/C: 108 % of control
[16]
  T/C: 99 % of control
